Assay results as given in the supplement of paper PMC10307832.

Key:
Assay in all cases: relative viability (nuclei count vs DMSO), 5 days (fraction); higher = more cells survive
Motesanib + Tozasertib = compound: CC1(C)CNc2cc(NC(=O)c3cccnc3NCc3ccncc3)ccc21 [Motesanib] + Cc1cc(Nc2cc(N3CCN(C)CC3)nc(Sc3ccc(NC(=O)C4CC4)cc3)n2)n[nH]1 [Tozasertib] (partner 0.1 µM)
In short: (§1)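 Dosing by pin tool came one day after lung cancer cell lines were seeded in 1536-well plates, using either one drug or a fixed anchor-drug dose plus five library-drug doses (not always all listed) in √10 steps. After 5 days, nuclei were counted on 4× images. Relative viability is treated-well nuclei count divided by vehicle-well nuclei count, and values are medians of duplicate plates.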

[1] = compound: C[C@@]1(C(=O)Nc2ccc(F)nc2)CCCN1c1nc(Nc2cc(C3CC3)n[nH]2)c2cccn2n1 + CC1(C)CCC(c2ccc(Cl)cc2)=C(CN2CCN(c3ccc(C(=O)NS(=O)(=O)c4ccc(N[C@H](CCN5CCOCC5)CSc5ccccc5)c(S(=O)(=O)C(F)(F)F)c4)cc3)CC2)C1 [Navitoclax] (partner 0.5 µM)
In short: as §1

[2] = compound: C[C@@]1(C(=O)Nc2ccc(F)nc2)CCCN1c1nc(Nc2cc(C3CC3)n[nH]2)c2cccn2n1 + C[C@@H](Oc1cc(-c2cnn(C3CCNCC3)c2)cnc1N)c1c(Cl)ccc(F)c1Cl [Crizotinib] (partner 1 µM)
In short: as §1

[3] = compound: C[C@@]1(C(=O)Nc2ccc(F)nc2)CCCN1c1nc(Nc2cc(C3CC3)n[nH]2)c2cccn2n1 + Nc1nc2[nH]cc(CCc3ccc(C(=O)N[C@@H](CCC(=O)O)C(=O)O)cc3)c2c(=O)[nH]1 [Pemetrexed] (partner 0.2 µM)
In short: as §1

With LC-2-ad the relative viability (Motesanib + Tozasertib; first compound 0.01 µM) was 0.447, the relative viability (Motesanib + Tozasertib; first compound 0.03162 µM) was 0.362 and the relative viability (Motesanib + Tozasertib; first compound 0.1 µM) was 0.439. It also gave a relative viability (Motesanib + Tozasertib; first compound 0.3162 µM) of 0.476, a relative viability (Motesanib + Tozasertib; first compound 1 µM) of 0.45 and a relative viability ([1]; first compound 0.04 µM) of 0.379. The relative viability ([1]; first compound 0.1265 µM) was 0.373, the relative viability ([1]; first compound 0.4 µM) was 0.296 and the relative viability ([1]; first compound 1.265 µM) was 0.143. The relative viability ([2]; first compound 0.04 µM) was 0.448, the relative viability ([2]; first compound 0.1265 µM) was 0.387 and the relative viability ([2]; first compound 0.4 µM) was 0.349. The relative viability ([2]; first compound 1.265 µM) was 0.304, the relative viability ([3]; first compound 0.04 µM) was 0.28 and the relative viability ([3]; first compound 0.1265 µM) was 0.242. It also gave a relative viability ([3]; first compound 0.4 µM) of 0.263 and a relative viability ([3]; first compound 1.265 µM) of 0.211.
Work on SK-LU-1 yielded a relative viability (Motesanib + Tozasertib; first compound 0.01 µM) of 0.325, a relative viability (Motesanib + Tozasertib; first compound 0.03162 µM) of 0.298 and a relative viability (Motesanib + Tozasertib; first compound 0.1 µM) of 0.352. For the same cell line, the relative viability (Motesanib + Tozasertib; first compound 0.3162 µM) was 0.327, the relative viability (Motesanib + Tozasertib; first compound 1 µM) was 0.263 and the relative viability ([1]; first compound 0.04 µM) was 0.958. It also gave a relative viability ([1]; first compound 0.1265 µM) of 0.689, a relative viability ([1]; first compound 0.4 µM) of 0.816 and a relative viability ([1]; first compound 1.265 µM) of 0.42. For the same cell line, the relative viability ([2]; first compound 0.04 µM) was 0.824, the relative viability ([2]; first compound 0.1265 µM) was 0.875 and the relative viability ([2]; first compound 0.4 µM) was 0.715. For the same cell line, the relative viability ([2]; first compound 1.265 µM) was 0.467, the relative viability ([3]; first compound 0.04 µM) was 1.07 and the relative viability ([3]; first compound 0.1265 µM) was 0.833. For the same cell line, the relative viability ([3]; first compound 0.4 µM) was 0.778 and the relative viability ([3]; first compound 1.265 µM) was 0.85.
In the case of ChaGo-K-1, the relative viability (Motesanib + Tozasertib; first compound 0.01 µM) is reported as 0.236, the relative viability (Motesanib + Tozasertib; first compound 0.03162 µM) is reported as 0.237 and the relative viability (Motesanib + Tozasertib; first compound 0.1 µM) is reported as 0.219. For the same cell line, the relative viability (Motesanib + Tozasertib; first compound 0.3162 µM) was 0.252, the relative viability (Motesanib + Tozasertib; first compound 1 µM) was 0.22 and the relative viability ([1]; first compound 0.04 µM) was 0.917. For the same cell line, the relative viability ([1]; first compound 0.1265 µM) was 0.616, the relative viability ([1]; first compound 0.4 µM) was 1.06 and the relative viability ([1]; first compound 1.265 µM) was 0.673. The relative viability ([2]; first compound 0.04 µM) was 0.989, the relative viability ([2]; first compound 0.1265 µM) was 0.644 and the relative viability ([2]; first compound 0.4 µM) was 1.01. For the same cell line, the relative viability ([2]; first compound 1.265 µM) was 0.791, the relative viability ([3]; first compound 0.04 µM) was 0.252 and the relative viability ([3]; first compound 0.1265 µM) was 0.253. For the same cell line, the relative viability ([3]; first compound 0.4 µM) was 0.273 and the relative viability ([3]; first compound 1.265 µM) was 0.258.
Cell Line Calu-6 has a relative viability ([1]; first compound 0.04 µM) of 0.83, a relative viability ([1]; first compound 0.1265 µM) of 0.637 and a relative viability ([1]; first compound 0.4 µM) of 0.62. The relative viability ([1]; first compound 1.265 µM) was 0.141, the relative viability ([2]; first compound 0.04 µM) was 0.881 and the relative viability ([2]; first compound 0.1265 µM) was 0.743. The relative viability ([2]; first compound 0.4 µM) was 0.597 and the relative viability ([2]; first compound 1.265 µM) was 0.491.
NCI-H358 was tested, and the relative viability (Motesanib + Tozasertib; first compound 0.01 µM) was 0.103, the relative viability (Motesanib + Tozasertib; first compound 0.03162 µM) was 0.103 and the relative viability (Motesanib + Tozasertib; first compound 0.1 µM) was 0.104. The relative viability (Motesanib + Tozasertib; first compound 0.3162 µM) was 0.103, the relative viability (Motesanib + Tozasertib; first compound 1 µM) was 0.107 and the relative viability ([2]; first compound 0.04 µM) was 0.474. For the same cell line, the relative viability ([2]; first compound 0.1265 µM) was 0.394, the relative viability ([2]; first compound 0.4 µM) was 0.241 and the relative viability ([2]; first compound 1.265 µM) was 0.216. The relative viability ([3]; first compound 0.04 µM) was 0.15, the relative viability ([3]; first compound 0.1265 µM) was 0.155 and the relative viability ([3]; first compound 0.4 µM) was 0.117. It also gave a relative viability ([3]; first compound 1.265 µM) of 0.137.
For NCI-H1648, the relative viability (Motesanib + Tozasertib; first compound 0.01 µM) was 0.307, the relative viability (Motesanib + Tozasertib; first compound 0.03162 µM) was 0.367 and the relative viability (Motesanib + Tozasertib; first compound 0.1 µM) was 0.281. It also gave a relative viability (Motesanib + Tozasertib; first compound 0.3162 µM) of 0.528, a relative viability (Motesanib + Tozasertib; first compound 1 µM) of 0.345 and a relative viability ([3]; first compound 0.04 µM) of 0.661. The relative viability ([3]; first compound 0.1265 µM) was 0.606, the relative viability ([3]; first compound 0.4 µM) was 0.624 and the relative viability ([3]; first compound 1.265 µM) was 0.637.
